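Protocol summary: plate cells (96-well), add compound at 5 concentrations, incubate 48 h, interpolate endpoints linearly. GI50 marks 50% less growth. TGI: concentration producing complete growth inhibition.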
Key:
Test in all cases: NCI tumour cell line growth inhibition, 48 h
[1] = test system: UACC-62 melanoma
[2] = test system: RXF 393 renal
[3] = test system: PC-3 prostate
[4] = test system: EKVX NSCLC
[5] = test system: MDA-MB-468 breast
[6] = test system: OVCAR-3 ovarian
[7] = test system: IGROV1 ovarian
[8] = test system: NCI-H226 lung
[9] = test system: CAKI-1 renal
[10] = test system: OVCAR-5 ovarian
[11] = test system: SK-MEL-2 melanoma
[12] = test system: UO-31 renal
[13] = test system: SF-295 CNS
[14] = test system: COLO 205 colon
[15] = test system: OVCAR-8 ovarian
[16] = test system: HCT-116 colon
[17] = test system: NCI-H522 lung
[18] = test system: CCRF-CEM leukemia
[19] = test system: A549 NSCLC
[20] = test system: OVCAR-4 ovarian
[21] = test system: 786-0 renal
[22] = test system: SNB-75 CNS
[23] = test system: HCC-2998 colon
[24] = test system: T-47D breast
[25] = test system: SK-MEL-28 melanoma
[26] = test system: U251 CNS
[27] = test system: DU-145 prostate
[28] = test system: HCT-15 colon
[29] = test system: HL-60(TB) leukemia
[30] = test system: SF-539 CNS
[31] = test system: SK-MEL-5 melanoma
[32] = test system: RPMI-8226 leukemia
[33] = test system: MOLT-4 leukemia
[34] = test system: K-562 leukemia
[35] = test system: SN12C renal
[36] = test system: HOP-92 NSCLC
[37] = test system: SW-620 colon
[38] = test system: UACC-257 melanoma
[39] = test system: NCI-H460 lung
[40] = test system: MDA-MB-231 breast
[41] = test system: KM12 colon
[42] = test system: SK-OV-3 ovarian
[43] = test system: TK-10 renal
[44] = test system: SR leukemia
[45] = test system: A498 renal
[46] = test system: ACHN renal
[47] = test system: MDA-MB-435
[48] = test system: BT-549 breast
[49] = test system: MALME-3M melanoma
[50] = test system: SF-268 CNS
[51] = test system: M14 melanoma
[52] = test system: HOP-62 NSCLC
[53] = test system: SNB-19 CNS
[54] = test system: HS 578T breast

## COC(=O)C[C@](O)(CCC(C)C)C(=O)O[C@@H]1C(OC)=C[C@]23CCCN2CCc2cc4c(cc2[C@H]13)OCO4
[1]
  GI50: 144 nM
  TGI: 603 nM
[2]
  GI50: 39.9 nM
  TGI: 285 nM
[3]
  GI50: 52.1 nM
  TGI: 756 nM
[4]
  GI50: 116 nM
  TGI: 775 nM
[5]
  GI50: 25.5 nM
  TGI: 115 nM
[6]
  GI50: 39 nM
  TGI: 306 nM
[7]
  GI50: 64.7 nM
  TGI: 525 nM
[8]
  GI50: 31.7 nM
  TGI: 351 nM
[9]
  GI50: 179 nM
  TGI: 988 nM
[10]
  GI50: 170 nM
  TGI: 596 nM
[11]
  GI50: 216 nM
  TGI: 642 nM
[12]
  GI50: 49.8 nM
  TGI: 449 nM
[13]
  GI50: 135 nM
  TGI: 662 nM
[14]
  GI50: 91.6 nM
  TGI: 397 nM
[15]
  GI50: 130 nM
  TGI: 787 nM
[16]
  GI50: 36.3 nM
  TGI: 1050 nM
[17]
  GI50: 21.2 nM
  TGI: 65.3 nM
[18]
  GI50: 34.4 nM
  TGI: 431 nM
[19]
  GI50: 52.1 nM
  TGI: 10700 nM
[20]
  GI50: 39.5 nM
  TGI: 354 nM
[21]
  GI50: 104 nM
  TGI: 544 nM
[22]
  GI50: 156 nM
  TGI: 417 nM
[23]
  GI50: 26.9 nM
  TGI: 129 nM
[24]
  GI50: 191 nM
  TGI: 919 nM
[25]
  GI50: 70.6 nM
  TGI: 352 nM
[26]
  GI50: 39.2 nM
  TGI: 4020 nM
[27]
  GI50: 145 nM
  TGI: 645 nM
[28]
  GI50: 36.4 nM
  TGI: 1270 nM
[29]
  GI50: 14.3 nM
  TGI: 65.5 nM
[30]
  GI50: 23 nM
  TGI: 58 nM
[31]
  GI50: 43.1 nM
  TGI: 181 nM
[32]
  GI50: 33.7 nM
  TGI: 132 nM
[33]
  GI50: 20.2 nM
  TGI: 140 nM
[34]
  GI50: 28.9 nM
  TGI: 116 nM
[35]
  GI50: 259 nM
  TGI: 1110 nM
[36]
  GI50: 208 nM
  TGI: 724 nM
[37]
  GI50: 57.5 nM
  TGI: 473 nM
[38]
  GI50: 194 nM
  TGI: 810 nM
[39]
  GI50: 21.2 nM
  TGI: 82 nM
[40]
  GI50: 247 nM
  TGI: 690 nM
[41]
  GI50: 56.8 nM
  TGI: 546 nM
[42]
  GI50: 159 nM
  TGI: 1620 nM
[43]
  GI50: 136 nM
  TGI: 1090 nM
[44]
  GI50: 18.2 nM
  TGI: 57.2 nM
[45]
  GI50: 17.3 nM
  TGI: 163 nM
[46]
  GI50: 40.2 nM
  TGI: 272 nM
[47]
  GI50: 101 nM
  TGI: 351 nM
[48]
  GI50: 90.7 nM
  TGI: 412 nM
[49]
  GI50: 20.1 nM
  TGI: 68.4 nM
[50]
  GI50: 192 nM
  TGI: 709 nM
[51]
  GI50: 50.4 nM
  TGI: 196 nM
[52]
  GI50: 244 nM
  TGI: 1480 nM
[53]
  GI50: 36 nM
  TGI: 305 nM
[54]
  GI50: 138 nM
  TGI: 545 nM
